Measurements as given in patent US11286268B1, “EIF4E-inhibiting compounds and methods” (EFFECTOR THERAPEUTICS, INC., priority 2019, dated 2022).
Read-outs that look alike come from different tables or passages of the source.

Biological target: recombinant eIF4E (Homo sapiens (Human), UniProt P06730)
Assay: Fluorescence polarization competition assay for eIF4E binding potency
Outline: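 IC50 values reflect 50% displacement of 20 nM EDA-m7GDP-ATTO-550 from 75 nM eIF4E, measured by fluorescence polarization after 30 min at room temperature. Buffer: 20 mM Tris pH 7.5, 100 mM NaCl, 1 mM DTT, 0.02% Tween-20; 1% DMSO.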

[1] = fluorescence polarization competition, 75 nM recombinant eIF4E, 20 nM EDA-m7GDP-ATTO-550, IC50 class, read-out: elF4E FP
[2] = inhibition of eIF4E/EDA-m7GDP-ATTO-550 binding, calculated IC50 values, Table 4B, read-out: IC50

Chain of recombinant eIF4E (P06730 whole entry): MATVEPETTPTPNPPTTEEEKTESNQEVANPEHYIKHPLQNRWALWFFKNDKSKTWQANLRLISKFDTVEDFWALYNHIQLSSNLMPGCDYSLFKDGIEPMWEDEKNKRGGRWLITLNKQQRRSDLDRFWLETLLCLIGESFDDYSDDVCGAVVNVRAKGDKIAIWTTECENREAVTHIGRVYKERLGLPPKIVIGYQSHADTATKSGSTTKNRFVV

IC50 [1]	IC50 [2]	Structure (SMILES)
< 50 nM	8.85 nM	Cc1cc(-c2cc(Cl)ccc2OCCn2c(C)nc3cc(C(F)(F)F)c(N4CCN(C5COC5)CC4)c(C#N)c3c2=O)c2scc(C(=O)O)c2n1 [compound 1242]
< 50 nM	15.6 nM	Cc1nc2cc(C(F)(F)F)c(N3CCN(C)CC3)c(C#N)c2c(=O)n1CCOc1ccc(Cl)cc1-c1ccnc2cc(C#N)sc12 [compound 1245]
< 50 nM	35.5 nM	Cc1nc2cc(C(F)(F)F)c(N3CCN(C)CC3)c(C#N)c2c(=O)n1CCOc1ccc(Cl)cc1-c1ccnc2c(Cl)csc12 [compound 1247]
50 to 1000 nM	75.9 nM	Cc1csc2c(-c3cc(Cl)ccc3OCCn3c(C)nc4cc(C(F)(F)F)c(N5CCN(C)CC5)c(C#N)c4c3=O)ccnc12 [compound 1249]
50 to 1000 nM	75.8 nM	Cc1nc2cc(C(F)(F)F)c(N3CCN(C)CC3)c(C#N)c2c(=O)n1CCOc1ccc(Cl)cc1-c1ncnc2ccsc12 [compound 1250]
	4.77 nM	Cc1nc2cc(C(F)(F)F)c(N3CCN(C)CC3)c(C#N)c2c(=O)n1CCOc1ccc(Cl)cc1-c1ccnc2cnsc12 [compound 1251]
	222 nM	Cc1sc2c(-c3cc(Cl)ccc3OCCn3c(C)nc4cc(C(F)(F)F)c(N5CCN(C)CC5)c(C#N)c4c3=O)ccnc2c1C [compound 1252]
	8.4 nM	Cc1nc2cc(C(F)(F)F)c(N3CCN(C)CC3)c(C#N)c2c(=O)n1CCOc1ccc(Cl)cc1-c1cc(CF)nc2ccsc12 [compound 1253]
	24.7 nM	Cc1nc2cc(C(F)(F)F)c(CN3CCN(C)CC3)c(C#N)c2c(=O)n1CCOc1ccc(Cl)cc1-c1ccnc2ccsc12 [compound 1256]
	52.5 nM	Cc1nc2cnc(N3CCN(C)CC3)c(C#N)c2c(=O)n1CCOc1ccc(Cl)cc1-c1ccnc2ccsc12 [compound 1257]
	13 nM	Cc1nc2cc(C(F)(F)F)c(C#CCN)c(C#N)c2c(=O)n1CCOc1ccc(Cl)cc1-c1ccnc2c(C(=O)O)csc12 [compound 1260]
	33.6 nM	Cc1nc2cc(C(F)(F)F)c(N3CCN(C)C(CO)C3)c(C#N)c2c(=O)n1CCOc1ccc(Cl)cc1-c1ccnc2c(C(=O)O)csc12 (stereo not shown) [compound 1261]
	> 1000 nM	Cc1ncc(F)cc1-c1c(CN(C)C)cc2nc(C)n(CCOc3ccc(Cl)cc3-c3ccnc4c(C(=O)O)csc34)c(=O)c2c1C#N [compound 1267]
	66.6 nM	Cc1nc2cc(C(F)(F)F)c(N3CCN(C)CC3)c(C#N)c2c(=O)n1CCSc1ccc(Cl)cc1-c1ccnc2c(C(=O)O)csc12 [compound 1269]
	28.1 nM	Cc1sc2c(-c3cc(Cl)ccc3OCCn3c(C)nc4cc(C(F)(F)F)c(N5CCN(C)CC5=O)c(C#N)c4c3=O)ccnc2c1C(=O)O [compound 1272]
	7.48 nM	Cc1nc(N2CCN(C)CC2)c(C#N)c2c(=O)n(CC#Cc3ccc(Cl)cc3-c3ccnc4c(C(=O)O)csc34)c(C)nc12 [compound 1273]

IC50 [1]	IC50 [2]	Structure (SMILES)
	40.2 nM	Cc1nc(N2CCN(CC(F)F)CC2)c(C#N)c2c(=O)n(CCOc3ccc(Cl)cc3-c3ccnc4c(C(=O)O)csc34)c(C)nc12 [compound 1274]
	10.6 nM	Cc1nc2cc(CN(C)CCF)c(OC(F)F)c(C#N)c2c(=O)n1CCOc1ccc(Cl)cc1-c1ccnc2c(C(=O)O)csc12 [compound 1278]
	4.26 nM	Cc1cc(-c2cc(Cl)ccc2OCCn2c(C)nc3ccc(N4CCC(O)C4)c(C#N)c3c2=O)c2scc(C(=O)O)c2n1 (stereo not shown) [compound 1280]
	117 nM	Cc1nc2cnc(N(C)C3CCN(CC(F)F)CC3)c(C#N)c2c(=O)n1CC#Cc1ccc(Cl)cc1-c1ccnc2c(C(N)=O)csc12 [compound 1281]
	33.5 nM	Cc1sc2c(-c3cc(Cl)ccc3OCCn3c(C)nc4cc(C(F)(F)F)c(CC5CN(C)C5)c(C#N)c4c3=O)ccnc2c1C(=O)O [compound 1283]
	> 1000 nM	Cc1ncc(F)cc1-c1c(CN(C)C)cc2nc(C)n(CCOc3ccc(Cl)cc3-c3ccnc4c(C(=O)O)c(C)sc34)c(=O)c2c1C#N [compound 1284]
	34.2 nM	Cc1sc2c(-c3cc(Cl)ccc3OCCn3c(C)nc4cc(C(F)(F)F)c(N5CCN(C)CC5)c(C#N)c4c3=O)ccc(F)c2c1C(=O)O [compound 1286]
	42.4 nM	Cc1nc2cc(C(F)(F)F)c(CCN3CC(F)(F)C3)c(C#N)c2c(=O)n1CCOc1ccc(Cl)cc1-c1ccnc2c(C(=O)O)csc12 [compound 1287]
	36.7 nM	Cc1nc2cc(C(F)(F)F)c(CCN(C)CC(F)F)c(C#N)c2c(=O)n1CCOc1ccc(Cl)cc1-c1ccnc2c(C(=O)O)csc12 [compound 1288]
	41.2 nM	Cc1nc2cc(C(F)(F)F)c(N3CCN(C4CC4)CC3)c(C#N)c2c(=O)n1CCOc1ccc(Cl)cc1-c1ccnc2c(C(=O)O)csc12 [compound 1291]
	35.1 nM	Cc1nc2cc(C(F)(F)F)c(N3CCN(CCC(F)(F)F)CC3)c(C#N)c2c(=O)n1CCOc1ccc(Cl)cc1-c1ccnc2c(C(=O)O)csc12 [compound 1293]
	13.4 nM	Cc1cc(-c2cc(Cl)ccc2OCCn2c(C)nc3cc(S(C)(=O)=O)c(N4CCN(C)CC4)c(C#N)c3c2=O)c2scc(C(=O)O)c2n1 [compound 1295]
	37.8 nM	Cc1sc2c(-c3cc(Cl)ccc3OCCn3c(C)nc4c(C)nc(N5CCN(C)CC5)c(C#N)c4c3=O)ccnc2c1C(=O)O [compound 1297]
	38.3 nM	Cc1nc2cc(C(F)(F)F)c(CCN(C)C)c(C#N)c2c(=O)n1CC#Cc1ccc(Cl)cc1-c1ccnc2c(C(=O)O)csc12 [compound 1298]
	32.1 nM	Cc1nc2cc(C(F)(F)F)c(N3CCN(C)CC3)cc2c(=O)n1CCOc1ccc(Cl)cc1-c1ccnc2c(C(=O)NS(C)(=O)=O)csc12 [compound 1299]
	18.1 nM	Cc1nc2cc(C(F)(F)F)c(N3CCN(C)CC3)nc2c(=O)n1CCOc1ccc(Cl)cc1-c1ccnc2c(C(=O)NS(C)(=O)=O)csc12 [compound 1300]

More lines, now with the values behind:

Structure (SMILES)	IC50 [1]	IC50 [2]
COCCN1CCN(c2c(C(F)(F)F)cc3nc(C)n(CCOc4ccc(Cl)cc4-c4ccnc5c(C(=O)O)csc45)c(=O)c3c2C#N)CC1 [compound 1243]	< 50 nM	5.55 nM
C#Cc1cc2nccc(-c3cc(Cl)ccc3OCCn3c(C)nc4cc(C(F)(F)F)c(N5CCN(C)CC5)c(C#N)c4c3=O)c2s1 [compound 1244]	< 50 nM	19.4 nM
Cc1nc2cc(C(F)(F)F)c(N3CCN(C)CC3)c(C#N)c2c(=O)n1CCOc1ccc(Cl)cc1-c1ccnc2cc(Cl)sc12 [compound 1246]	50 to 1000 nM	106 nM
Cc1cc2nccc(-c3cc(Cl)ccc3OCCn3c(C)nc4cc(C(F)(F)F)c(N5CCN(C)CC5)c(C#N)c4c3=O)c2s1 [compound 1248]	50 to 1000 nM	60.7 nM
Cc1nc2cc(C(F)(F)F)c(N3CCN(C)CC3)c(C#N)c2c(=O)n1CCOc1ccc(Cl)cc1-c1ccnc2c(C#N)csc12 [compound 1254]		26.5 nM
Cc1nc2cc(C(F)(F)F)c(CCN(C)C)c(C#N)c2c(=O)n1CCOc1ccc(Cl)cc1-c1ccnc2ccsc12 [compound 1255]		150 nM
Cc1nc2cnc(N3CCC(O)C3)c(C#N)c2c(=O)n1CCOc1ccc(Cl)cc1-c1ccnc2ccsc12 (stereo not shown) [compound 1258]		61.5 nM
Cc1nc2cnc(C3(F)CCN(C)CC3)c(C#N)c2c(=O)n1CCOc1ccc(Cl)cc1-c1ccnc2c(C(=O)O)csc12 [compound 1264]		12.4 nM
Cc1nc(N2CC3(CN(C)C3)C2)c(C#N)c2c(=O)n(CCOc3ccc(Cl)cc3-c3ccnc4c(C(=O)O)csc34)c(C)nc12 [compound 1265]		11.5 nM
COc1ccc(-c2csc3c(-c4cc(Cl)ccc4OCCn4c(C)nc5cnc(N6CCN(C)CC6)c(C#N)c5c4=O)ccnc23)cc1 [compound 1268]		472 nM
Cc1nc2cc(C(F)(F)F)c(N3CCN(C)CC3=O)c(C#N)c2c(=O)n1CC#Cc1ccc(Cl)cc1-c1ccnc2c(C(=O)O)csc12 [compound 1270]		39.9 nM
Cc1sc2c(-c3cc(Cl)ccc3C#CCn3c(C)nc4cc(C(F)(F)F)c(N5CCN(C)CC5)c(C#N)c4c3=O)ccnc2c1C(=O)O [compound 1271]		13.1 nM
CCc1cc(-c2cc(Cl)ccc2OCCn2c(C)nc3cc(C(F)(F)F)c(CC4CCN(C)CC4)c(C#N)c3c2=O)c2scc(C(=O)O)c2n1 [compound 1275]		58.7 nM
CCc1cc(-c2cc(Cl)ccc2OCCn2c(C)nc3cc(C(F)(F)F)c(CC4CCNCC4)c(C#N)c3c2=O)c2scc(C(=O)O)c2n1 [compound 1276]		13.5 nM
Cc1nc2cc(CN3CC(F)(F)C3)c(OC(F)F)c(C#N)c2c(=O)n1CCOc1ccc(Cl)cc1-c1ccnc2c(C(=O)O)csc12 [compound 1277]		38.4 nM
Cc1nc2cnc(C3CCC(F)(F)C3)c(C#N)c2c(=O)n1CCOc1ccc(Cl)cc1-c1ccnc2c(C(=O)O)csc12 (stereo not shown) [compound 1279]		8.91 nM
Cc1sc2c(-c3cc(Cl)ccc3OCCn3c(C)nc4cnc(N5CCN(C)CC5)c(C#N)c4c3=O)ccnc2c1C(=O)O [compound 1282]		38.2 nM
Cc1nc2cc(C(F)(F)F)c(N3CCN(CC(F)F)CC3)nc2c(=O)n1CC#Cc1ccc(Cl)cc1-c1ccnc2c(C(=O)O)csc12 [compound 1290]		149 nM
Cc1nc2cc(C(F)(F)F)c(N3CCN(C4CC(F)(F)C4)CC3)c(C#N)c2c(=O)n1CCOc1ccc(Cl)cc1-c1ccnc2c(C(=O)O)csc12 [compound 1292]		52.3 nM
Cc1sc2c(-c3cc(Cl)ccc3OCCn3c(C)nc4cc(S(C)(=O)=O)c(N5CCN(C)CC5)c(C#N)c4c3=O)ccnc2c1C(=O)O [compound 1294]		55.9 nM
Cc1nc2cc(S(C)(=O)=O)c(N3CCN(C)CC3)c(C#N)c2c(=O)n1CCOc1ccc(Cl)cc1-c1ccnc2c(C(=O)O)csc12 [compound 1296]		27 nM
Cc1nc2cnc(N3CCN(C)C4CC43)c(C#N)c2c(=O)n1CCOc1ccc(Cl)cc1-c1ccnc2c(C(=O)O)csc12 (stereo not shown) [compound 1301]		15.5 nM
Cc1nc2cnc(N3CCN(CCF)CC3)c(C#N)c2c(=O)n1CCOc1ccc(Cl)cc1-c1ccnc2c(C(=O)O)csc12 [compound 1302]		30.7 nM
